Laboratory results: patent US9920053B2, “N-(hetero)aryl-substituted heteroyclic derivatives useful for the treatment of diseases or conditions related to the central nervous system” (CHRONOS THERAPEUTICS LIMITED, priority 2014, dated 2018)

Experiments:
[1] = biological target: human ERG potassium channel (hERG) (Homo sapiens (Human), UniProt Q12809); assay: hERG channel tail current recording using Rapid ICE automated patch-clamp; format: cell-based; settings: HEK293 cells stably transfected with hERG
Method: The potency of the compounds of the invention in inhibiting human ERG potassium channel (hERG) tail current is assessed in a recombinant HEK293 cell line stably transfected with hERG cDNA using Rapid ICE™ (Rapid Ion Channel Electrophysiology) assay. Rapid ICE™ is an automated patch-clamp assay utilizing the PatchXpress 7000A system (Molecular Devices Corporation) or the QPatch HTX system (Sophion Bioscience A/S).
Briefly cells are cultivated for 24 to 72 hours before recordings in minimum essential medium supplemented with 10% FBS, 1% non-essential amino acids, 1% sodium pyruvate, 2 mM L-glutamine. The day of the experiment cells are detached with TrypLE and prepared to be loaded on the instrument. For PatchXpress cells are finally resuspended in 150 μl of Extracellular Buffer whereas for QPatch cells are resuspended in 7 ml Serum-Free Media containing 25 mM Hepes and Soybean trypsin inhibitor and immediately placed in the cell storage tank of the machine. The composition of the Extracellular Buffer is (mM): NaCl 137; KCl 4; CaCl2 1.8; MgCl2 1.0; D-glucose 10; N 2 hydroxyethylpiperazine-N′-2-ethanesulfonic acid (HEPES) 10; pH 7.4 with 1 M NaOH. The composition of the pipette solution is (mM): KCl 130; MgCl2 1.0; Ethylene glycol-bis(β-aminoethyl ether)-N,N,N′,N′-tetraacetic acid (EGTA) 5; MgATP 5; HEPES 10; pH 7.2 with 1 M KOH. The voltage protocol includes the following steps: step from −80 mV to −50 mV for 200 ms, +20 mV for 4.8 s, step to −50 mV for 5 s then step to the holding potential of −80 mV. Compounds of the invention are dissolved in DMSO and diluted in Extracellular Buffer to achieve final test concentrations (0.1, 1 and 10 μM) in 0.1% DMSO. The voltage protocol is run and recorded continuously during the experiment. The vehicle, corresponding to 0.1% DMSO in Extracellular Buffer, is then applied for 3 min followed by the test substance in triplicate. The standard combined exposure time is 5 min. The average of tail current amplitude values recorded from 4 sequential voltage pulses is used to calculate for each cell the effect of the test substance by calculating the residual current (% control) compared with vehicle pre-treatment. Data are reported as % inhibition for each concentration tested and IC50 values are estimated using DataXpress or QPatch software. At least two cells are tested, more if results diverge.

[2] = biological target: human dopamine transporter (DAT) (Homo sapiens (Human), UniProt Q01959); assay: Scintillation Proximity Assay (SPA) for human DAT binding ([3H]WIN-35,428); settings: recombinant human DAT, CHO
Description: (§1) Affinity is expressed in terms of inhibition constant (Ki) of the compounds of the invention for DAT, NET and SERT, and it is typically calculated from the IC50 values obtained in competition experiments using Cheng and Prusoff equation (Cheng and Prusoff, Biochem. Pharmacol. 22:3099, 1973). In the context of the present invention pKi values (corresponding to the antilogarithm of Ki) are used instead of Ki; pKi are only estimated to be accurate to about 0.3 log unit.
(§2) Chinese Hamster Ovary (CHO) cells stably expressing either human DAT (hDAT-CHO) or human NET (hNET-CHO) or human SERT (hSERT-CHO) are used for the membrane preparations for radioligand binding assays using Scintillation proximity Assay (SPA) technique. Each cell line is cultured independently in F-12K Nutrient Mixture containing 10% of Fetal Bovine Serum (FBS) supplemented with 450 μg/ml G-418. When cells are at 70-80% of confluence 3 mM Na Butyrate was added to the cell culture medium. After 24 h of incubation, the culture medium was removed and the cells detached with Versene (DAT) or by scraping (NET and SERT). Cell suspension is centrifuged at 41,000 g for 10 minutes at 4° C. The resultant pellets are re-suspended in 15 volumes of Ice-cold buffer (20 mM HEPES, 145 mM NaCl, 5 mM KCl, pH7.3), homogenized using an Ultra Turrax homogeniser and centrifuged as before. The resultant membrane pellets are re-suspended in up to 15 volume of ice-cold buffer, incubated for 20 minutes at 37° C and centrifuged as before at 41,000 g. The final membrane pellets are re-suspended into 5-10 volumes of ice-cold buffer, dispensed into 0.5 ml aliquots and stored at −80° C. until use. Protein concentration for each preparation is determined using Bio-Rad Protein Assay Kit.
(§3) The affinity of the compounds of the invention to the human DAT or NET or SERT transporters is assessed by using the [^3H]WIN-35,428 or [^3H]nisoxetine or [^3H]citalopram binding assays in recombinant human DAT, NET and SERT membranes with the SPA technology. The final assay volume is 50 μL in 384 well plates.
(§4) Briefly, 0.5 μL of test compound in neat DMSO or 0.5 μL of DMSO for total binding (TB) or 0.5 μL of indatraline 1 mM (10 μM final concentration) for non specific binding (NSB) are added to the assay plate. 50 μL of the SPA mixture is added to each well, containing: 30 μg/mL or 10 μg/mL or 25 μg/mL DAT, NET, SERT membranes, respectively; 5 nM [^3H]WIN-35,428 or 5 nM [^3H]nisoxetine or 1 nM [^3H]citalopram, for DAT, NET, SERT assay, respectively; 2.5 mg/mL or 1 mg/mL or 4 mg/mL WGA-PVT SPA beads (PerkinElmer RPNQ0001, for DAT, NET, SERT assay, respectively. All components are added to Assay Buffer (20 mM HEPES pH 7.4, 145 mM NaCl, 5 mM KCl, 0.01% Pluronic F-127). 0.02% BSA was used for DAT binding only. Plates are sealed with Topseal A and centrifuged 1 min, 800 rpm. Plates are loaded into a 1450 Microbeta TriLux (Perkin-Elmer) plate reader and the radioactivity counted after at least 4 hrs or overnight incubation at room temperature. Curve fitting and IC50 estimations are performed using a four parameter model in XLfit (IDBS, Guilford, UK) for Microdoft Excel (Microsoft, Redmond, Wash.).
The potency of the compounds of the invention in blocking the DAT function is measured using an uptake assay in a recombinant CHO cell line expressing human DAT (hDAT-CHO). Potency is measured in terms of pIC50 by testing the compounds of invention for the inhibition of [^3H]-dopamine uptake in DAT-CHO cells using a SPA technology in 384 well format.
Briefly, on the days of the experiment hDAT-CHO cells are detached using Versene and added (75,000 cells/mL) to the SPA Mixture, which contains the following components in Assay Buffer (20 mM HEPES, 145 mM NaCl, 5 mM KCl, 2 mM CaCl2, 1 mM MgCl2 and 1 g/L glucose, pH 7.3): 0.02% w/v of Pluronic F127, 2 mg/mL SPA Imaging beads (RPNQ0260, PerkinElmer), 10 μM pargyline and 80 nM of [^3H]-dopamine. […]

[3] = biological target: human norepinephrine transporter (NET) (Homo sapiens (Human), UniProt P23975); assay: Scintillation Proximity Assay (SPA) for human NET binding ([3H]nisoxetine); settings: recombinant human NET, CHO membranes
Description: as §1, §2, §3, §4

[4] = biological target: human serotonin transporter (SERT) (Homo sapiens (Human), UniProt P31645); assay: Scintillation Proximity Assay (SPA) for human SERT binding ([3H]citalopram); settings: recombinant human SERT, CHO membranes
Description: as §1, §2, §3, §4

Sequence of human ERG potassium channel (hERG) (Q12809 whole entry): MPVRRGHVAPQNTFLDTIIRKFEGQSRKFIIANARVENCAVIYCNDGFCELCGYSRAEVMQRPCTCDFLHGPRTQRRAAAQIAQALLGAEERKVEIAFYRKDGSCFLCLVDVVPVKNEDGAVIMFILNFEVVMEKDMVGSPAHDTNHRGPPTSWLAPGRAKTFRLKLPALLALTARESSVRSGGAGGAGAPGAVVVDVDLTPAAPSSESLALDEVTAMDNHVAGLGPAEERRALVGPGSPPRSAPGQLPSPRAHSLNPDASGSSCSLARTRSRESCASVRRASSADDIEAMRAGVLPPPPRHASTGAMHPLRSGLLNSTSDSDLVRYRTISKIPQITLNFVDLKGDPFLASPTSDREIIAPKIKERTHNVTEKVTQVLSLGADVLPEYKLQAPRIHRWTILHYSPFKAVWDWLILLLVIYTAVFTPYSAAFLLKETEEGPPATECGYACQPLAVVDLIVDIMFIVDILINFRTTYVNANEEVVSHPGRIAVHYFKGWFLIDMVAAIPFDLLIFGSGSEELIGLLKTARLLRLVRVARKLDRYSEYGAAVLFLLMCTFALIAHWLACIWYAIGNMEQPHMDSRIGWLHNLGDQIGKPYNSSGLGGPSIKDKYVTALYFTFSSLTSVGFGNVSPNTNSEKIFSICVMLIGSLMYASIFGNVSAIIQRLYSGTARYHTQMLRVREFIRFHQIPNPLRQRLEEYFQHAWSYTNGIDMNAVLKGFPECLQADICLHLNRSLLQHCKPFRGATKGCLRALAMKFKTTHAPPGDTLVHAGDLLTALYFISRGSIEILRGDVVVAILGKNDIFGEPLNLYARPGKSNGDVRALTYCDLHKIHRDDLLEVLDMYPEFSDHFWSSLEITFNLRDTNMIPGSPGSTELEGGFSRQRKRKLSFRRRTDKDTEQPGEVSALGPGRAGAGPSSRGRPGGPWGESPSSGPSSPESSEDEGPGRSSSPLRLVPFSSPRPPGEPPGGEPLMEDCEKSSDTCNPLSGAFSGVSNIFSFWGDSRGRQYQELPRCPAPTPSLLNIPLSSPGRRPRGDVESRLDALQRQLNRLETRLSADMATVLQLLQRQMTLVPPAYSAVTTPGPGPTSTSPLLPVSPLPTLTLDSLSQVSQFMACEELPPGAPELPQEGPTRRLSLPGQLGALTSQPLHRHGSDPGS
Sequence of human dopamine transporter (DAT) (Q01959 whole entry): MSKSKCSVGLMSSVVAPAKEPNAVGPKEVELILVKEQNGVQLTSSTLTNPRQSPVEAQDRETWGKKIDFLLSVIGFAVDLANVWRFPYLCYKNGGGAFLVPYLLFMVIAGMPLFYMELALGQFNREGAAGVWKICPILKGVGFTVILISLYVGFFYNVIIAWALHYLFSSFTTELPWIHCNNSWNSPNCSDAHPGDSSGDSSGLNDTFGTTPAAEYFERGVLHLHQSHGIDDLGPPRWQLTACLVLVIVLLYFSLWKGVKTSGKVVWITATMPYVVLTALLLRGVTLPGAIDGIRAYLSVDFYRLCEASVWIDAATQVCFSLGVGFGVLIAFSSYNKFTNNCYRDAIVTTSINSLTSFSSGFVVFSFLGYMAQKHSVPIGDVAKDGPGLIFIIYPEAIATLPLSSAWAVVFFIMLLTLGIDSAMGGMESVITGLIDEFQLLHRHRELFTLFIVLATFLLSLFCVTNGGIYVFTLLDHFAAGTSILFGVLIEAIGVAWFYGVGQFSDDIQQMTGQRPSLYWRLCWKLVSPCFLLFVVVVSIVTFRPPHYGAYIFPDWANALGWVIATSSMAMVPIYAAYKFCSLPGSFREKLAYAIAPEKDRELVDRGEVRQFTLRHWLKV
Sequence of human norepinephrine transporter (NET) (P23975 whole entry): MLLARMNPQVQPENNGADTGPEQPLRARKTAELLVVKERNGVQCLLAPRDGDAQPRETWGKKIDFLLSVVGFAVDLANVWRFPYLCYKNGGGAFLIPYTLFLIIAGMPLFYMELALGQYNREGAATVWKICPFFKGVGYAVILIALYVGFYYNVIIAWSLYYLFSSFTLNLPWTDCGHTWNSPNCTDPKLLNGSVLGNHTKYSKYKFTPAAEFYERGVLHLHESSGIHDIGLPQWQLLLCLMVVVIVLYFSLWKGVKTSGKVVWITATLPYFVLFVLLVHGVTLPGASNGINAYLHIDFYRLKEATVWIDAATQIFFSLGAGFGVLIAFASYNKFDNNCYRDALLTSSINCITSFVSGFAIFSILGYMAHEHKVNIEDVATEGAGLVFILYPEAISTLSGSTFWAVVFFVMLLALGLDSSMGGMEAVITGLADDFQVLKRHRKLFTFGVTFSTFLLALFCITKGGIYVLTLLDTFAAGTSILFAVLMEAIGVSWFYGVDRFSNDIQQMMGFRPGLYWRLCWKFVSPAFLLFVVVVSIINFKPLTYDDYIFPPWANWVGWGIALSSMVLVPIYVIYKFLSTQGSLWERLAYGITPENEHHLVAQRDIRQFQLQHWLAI
Sequence of human serotonin transporter (SERT) (P31645 whole entry): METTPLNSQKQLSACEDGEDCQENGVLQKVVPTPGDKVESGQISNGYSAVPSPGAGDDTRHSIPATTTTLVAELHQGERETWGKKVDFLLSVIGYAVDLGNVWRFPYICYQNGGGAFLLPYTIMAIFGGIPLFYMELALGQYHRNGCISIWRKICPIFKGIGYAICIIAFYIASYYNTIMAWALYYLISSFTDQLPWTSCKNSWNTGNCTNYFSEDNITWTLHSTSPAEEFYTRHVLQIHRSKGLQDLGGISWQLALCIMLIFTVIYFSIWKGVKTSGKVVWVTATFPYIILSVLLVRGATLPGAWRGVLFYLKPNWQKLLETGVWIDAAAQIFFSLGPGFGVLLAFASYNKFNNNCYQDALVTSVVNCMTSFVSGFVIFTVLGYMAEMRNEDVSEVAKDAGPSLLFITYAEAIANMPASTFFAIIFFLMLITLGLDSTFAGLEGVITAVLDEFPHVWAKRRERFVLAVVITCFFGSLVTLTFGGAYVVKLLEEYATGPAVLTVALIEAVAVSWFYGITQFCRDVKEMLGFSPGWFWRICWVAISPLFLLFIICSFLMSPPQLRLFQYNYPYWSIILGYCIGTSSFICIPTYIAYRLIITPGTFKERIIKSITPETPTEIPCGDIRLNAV

| Molecule | pIC50 hERG [1] | pIC50 DAT [2] | pIC50 NET [3] | IC50 [4] [µM] | pIC50 SERT [4] | IC50 [1] [µM] |
| --- | --- | --- | --- | --- | --- | --- |
| CNCC1(O)CCN(c2nc(Oc3cccc(F)c3)cc(C(F)(F)F)n2)CC1 [Example 5, 1-[4-(3-fluorophenoxy)-6-(trifluoromethyl)pyrimidin-2-yl]-4-[(methylamino)methyl]piperidin-4-ol] | 5.7 | 8.33 | 6.61 | 23.4 |  |  |
| NCC1(O)CCN(c2nc(Oc3cccc(F)c3)cc(C(F)(F)F)n2)CC1 [Example 11, 4-(aminomethyl)-1-[4-(3-fluorophenoxy)-6-(trifluoromethyl)pyrimidin-2-yl]piperidin-4-ol] | 5.8 | 8.72 | 6.46 | 7.59 |  |  |
| (3S or 3R)-3-[(cyclopropylamino)methyl]-1-[4-(3-fluorophenoxy)-6-(trifluoromethyl)pyrimidin-2-yl]pyrrolidin-3-ol [Example 31] | 5.7 | 8.75 | 6.86 |  | 4.46 |  |
| CC(C)C(=O)NCC1(O)CCN(c2nc(Oc3cccc(F)c3)cc(C(F)(F)F)n2)CC1 [Example 21, N-({1-[4-(3-fluorophenoxy)-6-(trifluoromethyl)pyrimidin-2-yl]-4-hydroxypiperidin-4-yl}methyl)-2-methylpropanamide] |  | 7.84 | 4.75 | > 100 |  | > 10 |
| O=C(NCC1(O)CCN(c2nc(Oc3cccc(F)c3)cc(C(F)(F)F)n2)CC1)c1cn[nH]c1 [Example 27, N-({1-[4-(3-fluorophenoxy)-6-(trifluoromethyl)pyrimidin-2-yl]-4-hydroxypiperidin-4-yl}methyl)-1H-pyrazole-4-carboxamide] | 5.3 | 7.72 | 5.65 | 34.7 |  |  |
| O=C(NCC1(O)CCN(c2nc(Oc3cccc(F)c3)cc(C(F)(F)F)n2)CC1)C1CNC1 [Example 25, N-({1-[4-(3-fluorophenoxy)-6-(trifluoromethyl)pyrimidin-2-yl]-4-hydroxypiperidin-4-yl}methyl)azetidine-3-carboxamide] |  | 8.30 | 5.70 | 35.5 |  | > 10 |
| CN(C)CC1(O)CCN(c2nc(Oc3cccc(F)c3)cc(C(F)(F)F)n2)CC1 [Example 1, 4-[(dimethylamino)methyl]-1-[4-(3-fluorophenoxy)-6(trifluoromethyl)pyrimidin-2-yl]piperidin-4-ol] | 6.6 | 8.46 | 7.00 | 13.5 |  |  |
| Cl.Fc1cccc(Oc2cc(C(F)(F)F)nc(N3CCC4NCCCC4C3)n2)c1 (centres unmarked) [Example 39, 6-[4-(3-fluorophenoxy)-6-(trifluoromethyl)pyrimidin-2-yl]-decahydro-1,6-naphthyridine hydrochloride] | 6.2 | 8.90 | 7.51 | 3.02 |  |  |
| OC1(CN2CCCC2)CCN(c2nc(Oc3cccc(F)c3)cc(C(F)(F)F)n2)CC1 [Example 2, 1-[4-(3-fluorophenoxy)-6-(trifluoromethyl)pyrimidin-2-yl]-4-(pyrrolidin-1-ylmethyl)piperidin-4-ol] | 6.7 | 8.80 | 7.57 | 17 |  |  |
| NCC1(F)CCN(c2nc(Oc3cccc(F)c3)cc(C(F)(F)F)n2)CC1 [Example 13, {4-fluoro-1-[4-(3-fluorophenoxy)-6-(trifluoromethyl)pyrimidin-2-yl]piperidin-4-yl}methanamine] | 5.4 | 8.31 | 6.40 | 7.24 |  |  |
| NCC1(O)CCN(c2cc(Oc3cccc(F)c3)cc(F)c2F)CC1 [Example 18, 4-(aminomethyl)-1-[2,3-difluoro-5-(3-fluorophenoxy)phenyl]piperidin-4-ol] | 6.0 | 9.05 | 7.51 | 6.17 |  |  |
| CC1CCC(C)N1CC1(O)CCN(c2nc(Oc3cccc(F)c3)cc(C(F)(F)F)n2)CC1 (centres unmarked) [Example 8, 4-[(2,5-dimethylpyrrolidin-1-yl)methyl]-1-[4-(3-fluorophenoxy)-6-(trifluoromethyl)pyrimidin-2-yl]piperidin-4-ol] | 6.8 | 7.66 | 6.29 | 6.03 |  |  |
| NCC1(O)CCN(c2nc(Oc3cccc(F)c3)cc(C(F)(F)F)n2)C1 (centres unmarked) [Example 33, 3-(aminomethyl)-1-[4-(3-fluorophenoxy)-6-(trifluoromethyl)pyrimidin-2-yl]pyrrolidin-3-ol] | 5.8 | 8.86 | 6.52 | 19.1 |  |  |
| Fc1cccc(Oc2cc(C(F)(F)F)nc(N3CCc4nc[nH]c4C3)n2)c1 [Example 36, 4-(3-fluorophenoxy)-2-{3H,4H,5H,6H,7H-imidazo[4,5-c]pyridin-5-yl}-6-(trifluoromethyl)pyrimidine] | 5.6 | 7.90 | 6.01 | > 100 |  |  |
